Laboratory results: patent publication US9090593B2, “Bicyclic compounds as Pim inhibitors” (AMGEN INC., priority 2010, dated 2015)
Read-outs that look alike come from different tables or passages of the source.

Legend:
[1] = target: T1, Pim-1 stably transfected into the U2OS human osteogenic sarcoma line (Homo sapiens, UniProt P11309); experiment: Pim cell assay, phospho-BAD normalized against total BAD, U2OS stably transfected with Pim-1; assay type: cell-based; conditions: read-out: Pim1_Cell_IC50
T1 construct: expressed in transfected cells; host or cells: U2OS human osteogenic sarcoma line
In short: (§1)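 U2OS cells stably expressing Pim-1 or Pim-2 were plated overnight at 37 °C, then dosed over a 10-point curve (final 0.3% DMSO; DMSO alone as high control). Lysates assayed for phospho- and total BAD by Meso Scale immunoassay; % phosphoprotein = (2×phospho)/(phospho+total)×100.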

[2] = target: T2, Pim-2 stably transfected into the U2OS human osteogenic sarcoma line (Homo sapiens, UniProt Q9P1W9); experiment: Pim cell assay, phospho-BAD normalized against total BAD, U2OS stably transfected with Pim-2; assay type: cell-based; conditions: read-out: Pim2_Cell_IC50; also: high dose 31.6 µM
T2 construct: expressed in transfected cells; host or cells: U2OS human osteogenic sarcoma line
In short: as §1

[3] = target: T3, full length recombinant Pim-3 protein (Homo sapiens, UniProt Q86V86); experiment: Pim-3 enzyme assay (HTRF, phosphorylation of biotinylated-BAD (S112) peptide); assay type: biochemical; conditions: read-out: Pim3 IC50
T3 construct: by full length recombinant Pim-1, Pim-2, or Pim-3 protein; purchased Millipore (UK)
In short: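 Full-length recombinant Pim-3 phosphorylates biotinylated BAD (S112) peptide in 60 mM Hepes pH 7.0, 0.05% BSA, 2 mM DTT; reaction stopped with 3 mM EDTA. Phospho-BAD detected by HTRF (Eu anti-phospho-BAD S112 antibody, streptavidin-APC). IC50 from percent-of-control values fitted to a 4-parameter logistic model.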

[4] = target: T4, full length recombinant Pim-1 protein (Homo sapiens, UniProt P11309); experiment: Pim-1 enzyme assay (HTRF, phosphorylation of biotinylated-BAD (S112) peptide); assay type: biochemical; conditions: enzyme assay, Pim-1; read-out: Pim_1_IC50
T4 construct: by full length recombinant Pim-1, Pim-2, or Pim-3 protein; hexahistidine tag followed by a thrombin cleavage site (N); made in house; host or cells: Sf9 (baculovirus) or E. coli (pET28)
In short: (§2)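 Inhibition is reported as IC50 from a 4-parameter logistic fit of percent-of-control HTRF signal, which tracks phospho-BAD (S112) formed by full-length human Pim-1 or Pim-2. Reactions ran in 60 mM Hepes, pH 7.0, 0.05% BSA, 2 mM DTT.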

[5] = target: T5, full length recombinant Pim-2 protein (Homo sapiens, UniProt Q9P1W9); experiment: Pim-2 enzyme assay (HTRF, phosphorylation of biotinylated-BAD (S112) peptide); assay type: biochemical; conditions: enzyme assay, Pim-2; read-out: Pim2_IC50
T5 construct: by full length recombinant Pim-1, Pim-2, or Pim-3 protein; hexahistidine tag followed by a thrombin cleavage site (N); made in house; host or cells: Sf9 (baculovirus) or E. coli (pET28)
In short: as §2

[6] = U2OS cells stably transfected with Pim-1, phospho-BAD, high dose […]
[7] = U2OS cells stably transfected with Pim-2, phospho-BAD, high dose […]

T2 sequence (Q9P1W9 whole entry): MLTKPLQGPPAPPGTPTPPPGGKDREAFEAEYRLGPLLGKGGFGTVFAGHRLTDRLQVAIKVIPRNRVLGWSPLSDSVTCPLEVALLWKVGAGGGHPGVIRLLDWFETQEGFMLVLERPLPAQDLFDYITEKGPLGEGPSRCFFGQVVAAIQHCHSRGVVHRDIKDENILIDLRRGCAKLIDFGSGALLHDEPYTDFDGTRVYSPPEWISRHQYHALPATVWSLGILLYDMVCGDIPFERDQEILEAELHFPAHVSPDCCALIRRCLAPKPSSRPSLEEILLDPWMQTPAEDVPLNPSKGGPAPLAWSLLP
T5 sequence (Q9P1W9 whole entry): as above
T1 sequence (P11309 whole entry): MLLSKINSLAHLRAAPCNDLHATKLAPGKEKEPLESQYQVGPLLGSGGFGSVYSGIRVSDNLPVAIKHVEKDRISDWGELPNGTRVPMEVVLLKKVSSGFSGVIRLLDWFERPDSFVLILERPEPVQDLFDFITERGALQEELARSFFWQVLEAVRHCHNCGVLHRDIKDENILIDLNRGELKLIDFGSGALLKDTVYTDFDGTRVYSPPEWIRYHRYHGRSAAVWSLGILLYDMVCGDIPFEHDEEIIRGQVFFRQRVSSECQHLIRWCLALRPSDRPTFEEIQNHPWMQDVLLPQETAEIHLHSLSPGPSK
T4 sequence (P11309 whole entry): as above

| Compound | IC50 [1] [nM] | IC50 [2] [nM] | IC50 [3] [nM] | IC50 [4] [nM] | IC50 [5] [nM] | IC50 [1, 6] [nM] | IC50 [2, 7] [nM] |
| --- | --- | --- | --- | --- | --- | --- | --- |
| Fc1cccc(F)c1-c1ccc2[nH]cc(-c3nccc(N[C@@H]4CCCNC4)n3)c2c1 [Example 24, (R)-2-(5-(2,6-difluorophenyl)-1H-indol-3-yl)-N-(piperidin-3-yl)pyrimidin-4-amine] | 497 | > 31600 | 23 | 18 | 87 | – | – |
| CC(C)Oc1cncc(-c2ccc3[nH]cc(-c4cncc(N[C@@H]5CCCNC5)n4)c3c2)n1 [Example 25, (R)-6-(5-(6-isopropoxypyrazin-2-yl)-1H-indol-3-yl)-N-(piperidin-3-yl)pyrazin-2-amine] | 405 | 24700 | 15 | 4 | 198 | – | – |
| Fc1cccc(Cl)c1-c1ccc2[nH]cc(-c3cncc(O[C@@H]4CCCNC4)n3)c2c1 [Example 26, (R)-5-(2-chloro-6-fluorophenyl)-3-(6-(piperidin-3-yloxy)pyrazin-2-yl)-1H-indole bis(2,2,2-trifluoroacetate)] | – | – | 6 | 4 | 23 | 514 | 3690 |
| NC1CCN(c2cncc(-c3c[nH]c4ccc(-c5c(F)cccc5Cl)cc34)n2)CC1 [Example 27, 1-(6-(5-(2-chloro-6-fluorophenyl)-1H-indol-3-yl)pyrazin-2-yl)piperidin-4-amine bis(2,2,2-trifluoroacetate)] | – | – | 9 | 10 | 48 | 780 | 27200 |
| CC(C)Oc1cncc(-c2ccc3[nH]cc(-c4ccnc(N)c4)c3c2)n1 [Example 28, 4-(5-(6-(1-methylethoxy)-2-pyrazinyl)-1H-indol-3-yl)-2-pyridinamine] | 1400 | 11300 | 12 | 32 | 271 | – | – |
| COc1cncc(-c2ccc3[nH]nc(-c4cnc(N5CCC(N)CC5)s4)c3c2)c1 [Example 31, 1-(5-(5-(5-Methoxypyridin-3-yl)-1H-indazol-3-yl)thiazol-2-yl)piperidin-4-amine] | 600 | 21600 | 4 | 9 | 326 | – | – |
| Fc1cccc(F)c1-c1ccc2[nH]cc(-c3cncc(NC4CCCNC4)c3)c2n1 (stereo not shown) [Example 33, 5-(5-(2,6-difluorophenyl)-1H-pyrrolo[3,2-b]pyridin-3-yl)-N-(piperidin-3-yl)pyridin-3-amine] | 1080 | > 31600 | 69 | 26 | 243 | – | – |
| NC1CCN(c2cncc(-c3c[nH]c4ccc(-c5ccccc5F)nc34)c2)CC1 [Example 34, 1-(5-(5-(2-fluorophenyl)-1H-pyrrolo[3,2-b]pyridin-3-yl)pyridin-3-yl)piperidin-4-amine] | 1010 | > 31600 | 29 | 27 | 380 | – | – |
| NC1CCN(c2cncc(-c3n[nH]c4ccc(-c5cc(C(=O)NCc6ccccc6)ccc5F)cc34)n2)CC1 [Example 36, 3-(3-(6-(4-amino-1-piperidinyl)-2-pyrazinyl)-1H-indazol-5-yl)-N-benzyl-4-fluorobenzamide] | – | – | 2 | 6 | 7 | 2060 | 6610 |
| CC(C)(C)NC(=O)c1ccc(F)c(-c2ccc3[nH]nc(-c4cncc(N5CCC(N)CC5)n4)c3c2)c1 [Example 37, 3-(3-(6-(4-amino-1-piperidinyl)-2-pyrazinyl)-1H-indazol-5-yl)-N-tert-butyl-4-fluorobenzamide] | – | – | 5 | 13 | 19 | 573 | 3530 |
| CCCCNC(=O)c1ccc(F)c(-c2ccc3[nH]nc(-c4cncc(N5CCC(N)CC5)n4)c3c2)c1 [Example 38, 3-(3-(6-(4-amino-1-piperidinyl)-2-pyrazinyl)-1H-indazol-5-yl)-N-butyl-4-fluorobenzamide] | – | – | 3 | 7 | 9 | 1210 | 4740 |

Second part, the compound after the results:

| IC50 [1] [nM] | IC50 [2] [nM] | IC50 [3] [nM] | IC50 [4] [nM] | IC50 [5] [nM] | IC50 [1, 6] [nM] | IC50 [2, 7] [nM] | Compound |
| --- | --- | --- | --- | --- | --- | --- | --- |
| – | – | 4 | 7 | 10 | 1620 | 6630 | CCCNC(=O)c1ccc(F)c(-c2ccc3[nH]nc(-c4cncc(N5CCC(N)CC5)n4)c3c2)c1 [Example 39, 3-(3-(6-(4-amino-1-piperidinyl)-2-pyrazinyl)-1H-indazol-5-yl)-4-fluoro-N-propylbenzamide] |
| – | – | 16 | 24 | 13 | 2370 | 7060 | CN(C)C(=O)c1ccc(F)c(-c2ccc3[nH]nc(-c4cncc(N5CCC(N)CC5)n4)c3c2)c1 [Example 40, 3-(3-(6-(4-amino-1-piperidinyl)-2-pyrazinyl)-1H-indazol-5-yl)-4-fluoro-N,N-dimethylbenzamide] |
| – | – | 26 | 35 | 29 | 1400 | 8520 | NC1CCN(c2cncc(-c3n[nH]c4ccc(-c5cc(C(=O)N6CCCCC6)ccc5F)cc34)n2)CC1 [Example 41, 1-(6-(5-(2-fluoro-5-(1-piperidinylcarbonyl)phenyl)-1H-indazol-3-yl)-2-pyrazinyl)-4-piperidinamine] |
| – | – | 20 | 32 | 41 | 2800 | 9840 | NC1CCN(c2cncc(-c3n[nH]c4ccc(-c5cc(C(=O)N6CCOCC6)ccc5F)cc34)n2)CC1 [Example 42, 1-(6-(5-(2-fluoro-5-(4-morpholinylcarbonyl)phenyl)-1H-indazol-3-yl)-2-pyrazinyl)-4-piperidinamine] |
| – | – | 3 | 7 | 5 | 2520 | 14900 | CCNC(=O)c1ccc(F)c(-c2ccc3[nH]nc(-c4cncc(N5CCC(N)CC5)n4)c3c2)c1 [Example 43, 3-(3-(6-(4-amino-1-piperidinyl)-2-pyrazinyl)-1H-indazol-5-yl)-N-ethyl-4-fluorobenzamide] |
| – | – | 4 | 7 | 5 | 932 | 4580 | CC(C)NC(=O)c1ccc(F)c(-c2ccc3[nH]nc(-c4cncc(N5CCC(N)CC5)n4)c3c2)c1 [Example 44, 3-(3-(6-(4-amino-1-piperidinyl)-2-pyrazinyl)-1H-indazol-5-yl)-4-fluoro-N-(1-methylethyl)benzamide] |
| – | – | 8 | 12 | 23 | 1560 | > 31600 | NC1CCN(c2cncc(-c3n[nH]c4ccc(-c5cc(C(=O)Nc6ccccc6)ccc5F)cc34)n2)CC1 [Example 45, 3-(3-(6-(4-amino-1-piperidinyl)-2-pyrazinyl)-1H-indazol-5-yl)-4-fluoro-N-phenylbenzamide] |
| – | – | 22 | 20 | 49 | 959 | 7030 | CCN(CC)C(=O)c1ccc(F)c(-c2ccc3[nH]nc(-c4cncc(N5CCC(N)CC5)n4)c3c2)c1 [Example 46, 3-(3-(6-(4-amino-1-piperidinyl)-2-pyrazinyl)-1H-indazol-5-yl)-N,N-diethyl-4-fluorobenzamide] |
| – | – | 43 | 43 | 290 | 1940 | > 31600 | CCN(CC)C(=O)c1cccc(-c2ccc3[nH]nc(-c4cncc(N5CCC(N)CC5)n4)c3c2)c1F [Example 47, 3-(3-(6-(4-amino-1-piperidinyl)-2-pyrazinyl)-1H-indazol-5-yl)-N,N-diethyl-2-fluorobenzamide] |
| – | – | 27 | 44 | 285 | 1110 | > 31600 | NC1CCN(c2cncc(-c3n[nH]c4ccc(-c5cc6ccccc6nc5Cl)cc34)n2)CC1 [Example 48, 1-(6-(5-(2-chloro-3-quinolinyl)-1H-indazol-3-yl)-2-pyrazinyl)-4-piperidinamine] |
| – | – | 7 | 7 | 72 | 1340 | > 31600 | Cn1ccc2cc(-c3ccc4[nH]nc(-c5cncc(N6CCC(N)CC6)n5)c4c3)ccc2c1=O [Example 49, 6-(3-(6-(4-amino-1-piperidinyl)-2-pyrazinyl)-1H-indazol-5-yl)-2-methyl-1(2H)-isoquinolinone] |
| – | – | 21 | 24 | 470 | 2270 | > 31600 | Cn1c(=O)cc(-c2ccc3[nH]nc(-c4cncc(N5CCC(N)CC5)n4)c3c2)c2ccccc21 [Example 50, 4-(3-(6-(4-amino-1-piperidinyl)-2-pyrazinyl)-1H-indazol-5-yl)-1-methyl-2(1H)-quinolinone] |
